Test results reported in patent US20100204508A1, “DENDRITIC COMPOUND AND USE THEREOF” (Industrial Technology Research Institute, priority 2004, published 2010).

Legend:
[1] = magnetizing relaxation rate via NMR (R1, R2); type: physicochemical; settings: B0 = 0.47 T, vertical relative relaxation
[2] = B0 = 1.0T; cited from earlier work

For `CNC[C@H](O)[C@@H](O)[C@H](O)[C@H](O)CO.CNC[C@H](O)[C@@H](O)[C@H](O)[C@H](O)CO.O=C([O-])CN(CCN(CC(=O)[O-])CC(=O)O)CCN(CC(=O)[O-])CC(=O)O.[Gd+3]` [Magnevist ™], the “R1(20 MHz)” value [1] is listed as 6.14 and the “R1 (Literature)” value [2] is listed as “R1 = 3.4”.
